{"source": "patent US20230399457A1", "about": "“Bioactive Synthetic Copolymer, Bioactive Macromolecule and Related Methods Thereof” (Agency for Science, Technology and Research, priority 2020, published 2023)", "origin": "cited, not measured here", "system": "rats"}
{"sequence": "AGQWHRVSVRWGC [A5G81, laminin-derived peptide]", "values": [{"measurement": "wound healing", "result": "facilitate wound healing in rats"}]}
